Source: PMC12829593 (Journal of cystic fibrosis : official journal of the …, 2025)
≈ marks a conversion by molar mass, not a printed value. Read-outs that look alike come from different tables or passages of the source.

Key:
[1] = type: in vivo, human; conditions: mean (SD); for Cavg / Cmin / AUC / Cmax / half-life / Tmax: plasma; for Cavg / Cmin / Cmax: steady state; for AUC / Cmax / half-life / Tmax: human, oral; for AUC: AUCτ, AUC24 (ELX, TEZ) or AUC12 (IVA)
CFTR = conditions: estimated from published data, compounds used concurrently; cited from earlier work
[2] = Tacrolimus concentration in transplant participants; type: in vivo, human; conditions: Transplant (n=12), concurrent ETI, mean (SD)
[3] = Transplant group (n=12), concomitant tacrolimus
[4] = T1/2, Non-transplant group (n=14)
[5] = T1/2, Transplant group (n=12), concomitant tacrolimus

CLss/F ([1]; Non-transplant group (n=14))	V/F ([1]; Non-transplant group (n=14))	Cavg ([1]; Non-transplant group (n=14))	Cmin ([1]; Non-transplant group (n=14))	CLss/F [1, 3]	V/F [1, 3]	Cavg [1, 3]	Cmin [1, 3]	AUC ([1]; Non-transplant group (n=14)) [ng·h/mL]	AUC [1, 3] [ng·h/mL]	Cmax ([1]; Non-transplant group (n=14)) [ng/mL]	Cmax [1, 3] [ng/mL]	half-life [1, 4] [h]	half-life [1, 5] [h]	Tmax ([1]; Non-transplant group (n=14)) [h]	Tmax [1, 3] [h]	Cmin ([1]; Non-transplant group (n=14), listed as IVA) [ng/mL]	Tacrolimus concentration [2]	Compound	EC50 (CFTR) [µg/mL]	EC90 (CFTR) [µg/mL]
2.05(2.29) L/h	107(155)	6398(3233) ng/mL	4327(2359) ng/mL	1.23(0.79) L/h	37.4(15.0)	8339(3152) ng/mL	5632(2664) ng/mL	154000	200000	9080	11400	35	23.6	4.79	7.33	–	–	Cc1nn(C)cc1S(=O)(=O)NC(=O)c1ccc(-n2ccc(OCC(C)(C)C(F)(F)F)n2)nc1N1C[C@@H](C)CC1(C)C [Elexacaftor, elexacaftor]	0.5 (≈ 0.837 µM)	4.5 (≈ 7.53 µM)
27.9 (47.4) L/h	337 (441)	947 (507) ng/mL	525 (325) ng/mL	19.9 (15.5) L/h	168 (71)	833 (342) ng/mL	467 (203) ng/mL	11400	9900	1380	–	9.4	7.8	4	4.6	525	–	CC(C)(C)c1cc(C(C)(C)C)c(NC(=O)c2c[nH]c3ccccc3c2=O)cc1O [Ivacaftor, ivacaftor]	0.04 (≈ 0.102 µM)	0.35 (≈ 0.892 µM)
–	–	–	–	–	–	–	–	–	–	–	–	–	–	–	–	–	6.5 (1.5) ng/mL	C=CC[C@@H]1/C=C(\C)C[C@H](C)C[C@H](OC)[C@H]2O[C@@](O)(C(=O)C(=O)N3CCCC[C@H]3C(=O)O[C@H](/C(C)=C/[C@@H]3CC[C@@H](O)[C@H](OC)C3)[C@H](C)[C@@H](O)CC1=O)[C@H](C)C[C@@H]2OC [Tacrolimus, tacrolimus]	–	–
1.53(0.83) L/h	37.1(24.4)	3294(1314) ng/mL	1746(1050) ng/mL	1.54(1.07) L/h	47.5(59)	3403(1240) ng/mL	2016(904) ng/mL	79000	82000	7460	6520	19	21	2.21	3.08	–	–	CC(C)(CO)c1cc2cc(NC(=O)C3(c4ccc5c(c4)OC(F)(F)O5)CC3)c(F)cc2n1C[C@@H](O)CO [Tezacaftor, tezacaftor]	0.4 (≈ 0.768 µM)	3.5 (≈ 6.72 µM)
